Assay results from ChEMBL document CHEMBL4340549, “Design, synthesis and biological evaluation of isochroman-4-one hybrids bearing piperazine moiety as antihypertensive agent candidates” (Bioorg Med Chem, 2019).

Tests used:
Thoracic aorta [1] = assay: Vasodilatory activity in Sprague-Dawley rat thoracic aorta assessed as inhibition of noradrenaline-induced contractions at 10 uM relative to untreated control; format: functional
Thoracic aorta [2] = assay: Vasodilatory activity in Sprague-Dawley rat thoracic aorta assessed as inhibition of noradrenaline-induced contractions at 100 uM relative to untreated control; format: functional
[3] = target: T1, Alpha-1D adrenergic receptor (Rattus norvegicus, UniProt P23944); assay: Antagonist activity at alpha-1D adrenergic receptor in SPF rat vas thoracic aorta assessed as inhibition of noradrenaline-induced contractions; conditions: read-out: pA2 (converted)
T1 sequence (P23944 whole entry): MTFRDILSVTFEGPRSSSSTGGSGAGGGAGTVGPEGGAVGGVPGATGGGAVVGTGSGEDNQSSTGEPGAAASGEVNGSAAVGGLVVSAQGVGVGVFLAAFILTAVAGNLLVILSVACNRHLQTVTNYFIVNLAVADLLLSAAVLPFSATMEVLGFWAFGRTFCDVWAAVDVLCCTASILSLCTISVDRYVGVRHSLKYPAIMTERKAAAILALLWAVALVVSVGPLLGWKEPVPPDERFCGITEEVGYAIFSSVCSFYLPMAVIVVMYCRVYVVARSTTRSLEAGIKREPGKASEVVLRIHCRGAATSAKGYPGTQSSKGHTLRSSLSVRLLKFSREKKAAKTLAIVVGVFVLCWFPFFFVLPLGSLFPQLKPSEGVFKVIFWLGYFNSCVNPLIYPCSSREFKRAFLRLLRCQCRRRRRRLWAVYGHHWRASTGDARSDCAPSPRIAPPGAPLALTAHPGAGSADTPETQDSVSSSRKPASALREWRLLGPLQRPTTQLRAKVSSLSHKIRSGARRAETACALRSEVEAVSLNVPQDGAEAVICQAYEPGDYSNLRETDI

Rattus norvegicus [4] = assay: Effect on heart rate in spontaneously hypertensive rat assessed as heart rate level at 80 mg/kg, po measured after 6 hrs by tail-cuff method (reference value: 411.12 +/- 19.1 bpm); format: ADME, organism-based; conditions: in vivo
Rattus norvegicus [5] = assay: Antihypertensive activity in spontaneously hypertensive rat assessed as diastolic arterial pressure at 80 mg/kg, po measured after 6 hrs by tail-cuff method (reference value: 137.54 +/- 9.2 mmHg); format: functional
Rattus norvegicus [6] = assay: Antihypertensive activity in spontaneously hypertensive rat assessed as mean arterial pressure at 80 mg/kg, po measured after 6 hrs by tail-cuff method (reference value: 151.48 +/- 12.24 mmHg); format: functional
Rattus norvegicus [7] = assay: Antihypertensive activity in spontaneously hypertensive rat assessed as systolic arterial pressure at 80 mg/kg, po measured after 0 hrs by tail-cuff method (reference value: 186.10 +/- 4.55 mmHg); format: functional
Rattus norvegicus [8] = assay: Antihypertensive activity in spontaneously hypertensive rat assessed as diastolic arterial pressure at 80 mg/kg, po measured after 0 hrs by tail-cuff method (reference value: 149.50 +/- 5.4 mmHg); format: functional
Rattus norvegicus [9] = assay: Antihypertensive activity in spontaneously hypertensive rat assessed as mean arterial pressure at 80 mg/kg, po measured after 0 hrs by tail-cuff method (reference value: 161.70 +/- 5.12 mmHg); format: functional
Rattus norvegicus [10] = assay: Effect on heart rate in spontaneously hypertensive rat assessed as heart rate level at 80 mg/kg, po measured after 0 hrs by tail-cuff method (reference value: 413.17 +/- 10.5 bpm); format: ADME, organism-based; conditions: in vivo
Rattus norvegicus [11] = assay: Antihypertensive activity in spontaneously hypertensive rat assessed as systolic arterial pressure at 80 mg/kg, po measured after 1 hr by tail-cuff method (reference value: 185.35 +/- 10.30 mmHg); format: functional
Rattus norvegicus [12] = assay: Antihypertensive activity in spontaneously hypertensive rat assessed as diastolic arterial pressure at 80 mg/kg, po measured after 1 hr by tail-cuff method (reference value: 147.33 +/- 9.8 mmHg); format: functional
Rattus norvegicus [13] = assay: Antihypertensive activity in spontaneously hypertensive rat assessed as mean arterial pressure at 80 mg/kg, po measured after 1 hr by tail-cuff method (reference value: 160 +/- 9.97 mmHg); format: functional
Rattus norvegicus [14] = assay: Effect on heart rate in spontaneously hypertensive rat assessed as heart rate level at 80 mg/kg, po measured after 1 hr by tail-cuff method (reference value: 415.25 +/- 14.7 bpm); format: ADME, organism-based; conditions: in vivo
Rattus norvegicus [15] = assay: Antihypertensive activity in spontaneously hypertensive rat assessed as systolic arterial pressure at 80 mg/kg, po measured after 2 hrs by tail-cuff method (reference value: 189.20 +/- 12.31 mmHg); format: functional
Rattus norvegicus [16] = assay: Antihypertensive activity in spontaneously hypertensive rat assessed as diastolic arterial pressure at 80 mg/kg, po measured after 2 hrs by tail-cuff method (reference value: 149.90 +/- 6 mmHg); format: functional
Rattus norvegicus [17] = assay: Antihypertensive activity in spontaneously hypertensive rat assessed as mean arterial pressure at 80 mg/kg, po measured after 2 hrs by tail-cuff method (reference value: 163 +/- 8.1 mmHg); format: functional
Rattus norvegicus [18] = assay: Effect on heart rate in spontaneously hypertensive rat assessed as heart rate level at 80 mg/kg, po measured after 2 hrs by tail-cuff method (reference value: 413.2 +/- 15.2 bpm); format: ADME, organism-based; conditions: in vivo
Rattus norvegicus [19] = assay: Antihypertensive activity in spontaneously hypertensive rat assessed as systolic arterial pressure at 80 mg/kg, po measured after 4 hrs by tail-cuff method (reference value: 178.66 +/- 17.18 mmHg); format: functional
Rattus norvegicus [20] = assay: Antihypertensive activity in spontaneously hypertensive rat assessed as diastolic arterial pressure at 80 mg/kg, po measured after 4 hrs by tail-cuff method (reference value: 136.12 +/- 5.3 mmHg); format: functional
Rattus norvegicus [21] = assay: Antihypertensive activity in spontaneously hypertensive rat assessed as mean arterial pressure at 80 mg/kg, po measured after 4 hrs by tail-cuff method (reference value: 150.30 +/- 9.26 mmHg); format: functional
Rattus norvegicus [22] = assay: Effect on heart rate in spontaneously hypertensive rat assessed as heart rate level at 80 mg/kg, po measured after 4 hrs by tail-cuff method (reference value: 410.80 +/- 17.4 bpm); format: ADME, organism-based; conditions: in vivo
Rattus norvegicus [23] = assay: Antihypertensive activity in spontaneously hypertensive rat assessed as systolic arterial pressure at 80 mg/kg, po measured after 6 hrs by tail-cuff method (reference value: 179.36 +/- 18.33 mmHg); format: functional
Rattus norvegicus [24] = assay: Antihypertensive activity in spontaneously hypertensive rat assessed as systolic arterial pressure at 80 mg/kg, po measured after 8 hrs by tail-cuff method (reference value: 179.42 +/- 13.70 mmHg); format: functional
Rattus norvegicus [25] = assay: Antihypertensive activity in spontaneously hypertensive rat assessed as diastolic arterial pressure at 80 mg/kg, po measured after 8 hrs by tail-cuff method (reference value: 140.61 +/- 10.3 mmHg); format: functional
Rattus norvegicus [26] = assay: Antihypertensive activity in spontaneously hypertensive rat assessed as mean arterial pressure at 80 mg/kg, po measured after 8 hrs by tail-cuff method (reference value: 153.55 +/- 11.43 mmHg); format: functional
Rattus norvegicus [27] = assay: Effect on heart rate in spontaneously hypertensive rat assessed as heart rate level at 80 mg/kg, po measured after 8 hrs by tail-cuff method (reference value: 412.77 +/- 11.3 bpm); format: ADME, organism-based; conditions: in vivo
Rattus norvegicus [28] = assay: Antihypertensive activity in spontaneously hypertensive rat assessed as reduction in mean arterial pressure at 80 mg/kg, po measured after 2 hrs by tail-cuff method; format: functional; design: scale not given: the % may be the effect or the level left

CCOc1ccccc1N1CCN(CC(O)COc2cc3c(cc2OC)C(=O)C(C)OC3)CC1 (stereo not drawn)
inhibition at 10 µM (Thoracic aorta [1]): 11.6%
inhibition at 100 µM (Thoracic aorta [2]): 23.3%

CCOc1ccccc1N1CCN(CC(O)COc2cc3c(cc2OC)COC(C)C3=O)CC1 (stereo not drawn)
inhibition at 10 µM (Thoracic aorta [1]): 25.4%
inhibition at 100 µM (Thoracic aorta [2]): 55.3%
Kb [3]: 485 nM

COc1ccc2c(c1OCC(O)CN1CCN(c3ccccc3Cl)CC1)COC(C)C2=O (stereo not drawn)
inhibition at 10 µM (Thoracic aorta [1]): 18.2%
inhibition at 100 µM (Thoracic aorta [2]): 29.1%

COc1cc2c(cc1OCC(O)CN1CCN(c3ccccc3Cl)CC1)COC(C)C2=O (stereo not drawn)
inhibition at 10 µM (Thoracic aorta [1]): 27%
inhibition at 100 µM (Thoracic aorta [2]): 32.4%

CCOc1ccccc1N1CCN(CC(O)COc2c(OC)ccc3c2COC(C)C3=O)CC1 (stereo not drawn)
inhibition at 10 µM (Thoracic aorta [1]): 23.1%
inhibition at 100 µM (Thoracic aorta [2]): 36.1%

COc1cc2c(cc1OCC(O)CN1CCN(c3ccccc3OC)CC1)C(=O)C(C)OC2 (stereo not drawn)
inhibition at 10 µM (Thoracic aorta [1]): 23.1%
inhibition at 100 µM (Thoracic aorta [2]): 44.6%

COc1cc2c(cc1OCC(O)CN1CCN(c3ccccc3)CC1)COC(C)C2=O (stereo not drawn)
inhibition at 10 µM (Thoracic aorta [1]): 39.2%
inhibition at 100 µM (Thoracic aorta [2]): 48.1%
Kb [3]: 621 nM

COc1ccccc1N1CCN(CC(O)COc2c(OC)ccc3c2COC(C)C3=O)CC1 (stereo not drawn)
inhibition at 10 µM (Thoracic aorta [1]): 13.6%
inhibition at 100 µM (Thoracic aorta [2]): 24.4%

COc1cc2c(cc1OCC(O)CN1CCN(c3ccccc3)CC1)C(=O)C(C)OC2 (stereo not drawn)
inhibition at 10 µM (Thoracic aorta [1]): 28.6%
inhibition at 100 µM (Thoracic aorta [2]): 46.4%

COc1ccccc1N1CCN(CC(O)COc2cccc3ccccc23)CC1 (stereo not drawn) [NAFTOPIDIL]
Activity (Rattus norvegicus [4]): 411.19 bpm
Activity (Rattus norvegicus [5]): 139.57 mmHg
Activity (Rattus norvegicus [6]): 145.79 mmHg
inhibition at 10 µM (Thoracic aorta [1]): 47.5%
inhibition at 100 µM (Thoracic aorta [2]): 65.2%
Kb [3]: 143 nM
Activity (Rattus norvegicus [7]): 181.92 mmHg
Activity (Rattus norvegicus [8]): 152.14 mmHg
Activity (Rattus norvegicus [9]): 162.07 mmHg
Activity (Rattus norvegicus [10]): 415.15 bpm
Activity (Rattus norvegicus [11]): 161.36 mmHg
Activity (Rattus norvegicus [12]): 140.19 mmHg
Activity (Rattus norvegicus [13]): 147.25 mmHg
Activity (Rattus norvegicus [14]): 412.14 bpm
Activity (Rattus norvegicus [15]): 148.13 mmHg
Activity (Rattus norvegicus [16]): 129.85 mmHg
Activity (Rattus norvegicus [17]): 135.94 mmHg
Activity (Rattus norvegicus [18]): 406.12 bpm
Activity (Rattus norvegicus [19]): 153.65 mmHg
Activity (Rattus norvegicus [20]): 134.31 mmHg
Activity (Rattus norvegicus [21]): 140.76 mmHg
Activity (Rattus norvegicus [22]): 409.22 bpm
Activity (Rattus norvegicus [23]): 158.22 mmHg
Activity (Rattus norvegicus [24]): 170.5 mmHg
Activity (Rattus norvegicus [25]): 143.06 mmHg
Activity (Rattus norvegicus [26]): 152.21 mmHg
Activity (Rattus norvegicus [27]): 417.25 bpm
Activity (Rattus norvegicus [28]): 16.1%

COc1cc2c(cc1OCC(O)CN1CCN(c3ccccc3OC)CC1)COC(C)C2=O (stereo not drawn)
inhibition at 10 µM (Thoracic aorta [1]): 41.7%
inhibition at 100 µM (Thoracic aorta [2]): 50.4%
Kb [3]: 2200 nM

COc1ccc2c(c1OCC(O)CN1CCN(c3ccccc3)CC1)COC(C)C2=O (stereo not drawn)
inhibition at 10 µM (Thoracic aorta [1]): 37.8%
inhibition at 100 µM (Thoracic aorta [2]): 59.7%
Kb [3]: 296 nM

COc1cc2c(cc1OCC(O)CN1CCN(C(=O)c3ccco3)CC1)C(=O)C(C)OC2 (stereo not drawn)
inhibition at 10 µM (Thoracic aorta [1]): 33.4%
inhibition at 100 µM (Thoracic aorta [2]): 44.9%
Kb [3]: 1550 nM

COc1cc2c(cc1OCC(O)CN1CCN(C(=O)c3ccco3)CC1)COC(C)C2=O (stereo not drawn)
inhibition at 10 µM (Thoracic aorta [1]): 17.8%
inhibition at 100 µM (Thoracic aorta [2]): 22.8%

COc1cc2c(cc1OCC(O)CN1CCN(c3ccccc3Cl)CC1)C(=O)C(C)OC2 (stereo not drawn)
inhibition at 10 µM (Thoracic aorta [1]): 30.2%
inhibition at 100 µM (Thoracic aorta [2]): 42.4%

COc1cc2c(cc1OCC(O)CN1CCN(C(=O)C3CCCO3)CC1)COC(C)C2=O (stereo not drawn)
inhibition at 10 µM (Thoracic aorta [1]): 33.9%
inhibition at 100 µM (Thoracic aorta [2]): 40.1%

COc1ccc2c(c1OCC(O)CN1CCN(C(=O)C3CCCO3)CC1)COC(C)C2=O (stereo not drawn)
inhibition at 10 µM (Thoracic aorta [1]): 31.4%
inhibition at 100 µM (Thoracic aorta [2]): 45.1%
Kb [3]: 340 nM

COc1ccc2c(c1OCC(O)CN1CCN(C(=O)c3ccco3)CC1)COC(C)C2=O (stereo not drawn)
inhibition at 10 µM (Thoracic aorta [1]): 20.8%
inhibition at 100 µM (Thoracic aorta [2]): 31.9%
